Where “and” joins values, the source holds several entries; their conditions need not be identical. Equal values may be shown once. Toxic doses and inconclusive results are not listed.

The source of these data is PubChem BioAssay AID256 (DTP/NCI, 2004).

The subject of this test is CD2F1 mice, L1210 leukemia ip, survival T/C. Briefly: NCI In Vivo Anticancer Drug Screen. Data for tumor model L1210 Leukemia (intraperitoneal) in CD2F1 (CDF1) mice. The conditions noted are these: higher = longer survival. The method in brief: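 Compound-dosed mice with transplantable tumor versus matched vehicle controls; endpoint ratio T/C reported.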
The mark [1] stands for this setting: endpoint: mean survival time, dose: 50.0 mg/kg/injection, schedule: Q04DX002 (ip), vehicle: saline with Tween-80.
Where [2] appears, read: endpoint: mean survival time, dose: 100.0 mg/kg/injection, schedule: Q04DX002 (ip), vehicle: saline with Tween-80.
The mark [3] stands for this setting: endpoint: mean survival time, dose: 200.0 mg/kg/injection, schedule: Q04DX002 (ip), vehicle: saline with Tween-80.
[4] abbreviates: endpoint: mean survival time, dose: 100.0 mg/kg/injection, schedule: Q01DX009 (ip), vehicle: saline with Tween-80.
The mark [5] stands for this setting: endpoint: mean survival time, dose: 100.0 mg/kg/injection, schedule: Q04DX003 (ip), vehicle: saline with Tween-80.
The mark [6] stands for this setting: endpoint: mean survival time, dose: 200.0 mg/kg/injection, schedule: Q01DX009 (ip), vehicle: saline with Tween-80.
Where [7] appears, read: endpoint: mean survival time, dose: 400.0 mg/kg/injection, schedule: Q01DX009 (ip), vehicle: saline with Tween-80.
[8] abbreviates: endpoint: mean survival time, dose: 400.0 mg/kg/injection, schedule: Q04DX003 (ip), vehicle: saline with Tween-80.
The mark [9] stands for this setting: endpoint: mean survival time, dose: 25.0 mg/kg/injection, schedule: Q01DX009 (ip), vehicle: saline with Tween-80.
Setting [10] is: endpoint: mean survival time, dose: 50.0 mg/kg/injection, schedule: Q01DX009 (ip), vehicle: saline with Tween-80.
[11] abbreviates: endpoint: mean survival time, dose: 12.5 mg/kg/injection, schedule: Q01DX009 (ip), vehicle: saline with Tween-80.
Setting [12] is: endpoint: mean survival time, dose: 200.0 mg/kg/injection, schedule: Q04DX003 (ip), vehicle: saline with Tween-80.
Where [13] appears, read: endpoint: mean survival time, dose: 75.0 mg/kg/injection, schedule: Q01DX001 (ip), vehicle: saline.
Setting [14] is: endpoint: mean survival time, dose: 100.0 mg/kg/injection, schedule: Q01DX001 (ip), vehicle: saline with Tween-80.
Setting [15] is: endpoint: mean survival time, dose: 200.0 mg/kg/injection, schedule: Q01DX001 (ip), vehicle: saline with Tween-80.
The mark [16] stands for this setting: endpoint: mean survival time, dose: 400.0 mg/kg/injection, schedule: Q01DX001 (ip), vehicle: saline with Tween-80.
Where [17] appears, read: endpoint: mean survival time, dose: 100.0 mg/kg/injection, schedule: Q01DX009 (ip), vehicle: saline.
Setting [18] is: endpoint: mean survival time, dose: 200.0 mg/kg/injection, schedule: Q01DX009 (ip), vehicle: saline.

As for `Cc1ccc(/C(=N\Nc2ccc([N+](=O)[O-])cc2[N+](=O)[O-])C2CC2c2ccccc2)cc1` (centres undefined), the T/C under setting [1] was 91 % of control, the T/C under setting [2] is 105 % of control and the T/C under setting [3] is 91 % of control.
In the case of `C[Si](C)(C)C1C=CC=C1`, the T/C under setting [2] was 100 % of control; the T/C under setting [3] was 100 % of control; the T/C (endpoint: mean survival time, dose: 400.0 mg/kg/injection, schedule: Q04DX002 (ip), vehicle: saline with Tween-80) is 92 % of control.
Consider `CN(C)N(Cc1ccccc1)/N=N/c1nc[nH]c1C(N)=O`, for which the T/C is 107 % of control (endpoint: mean survival time, dose: 50.0 mg/kg/injection, schedule: Q01DX001 (ip), vehicle: Klucel (hydroxypropylcellulose) (HPC)); 105 % of control (endpoint: mean survival time, dose: 50.0 mg/kg/injection, schedule: Q01DX009 (ip), vehicle: Klucel (hydroxypropylcellulose) (HPC)); 98 % of control (endpoint: mean survival time, dose: 100.0 mg/kg/injection, schedule: Q01DX001 (ip), vehicle: Klucel (hydroxypropylcellulose) (HPC)); 96 % of control (endpoint: mean survival time, dose: 100.0 mg/kg/injection, schedule: Q01DX009 (ip), vehicle: Klucel (hydroxypropylcellulose) (HPC)); 90 % of control (endpoint: mean survival time, dose: 200.0 mg/kg/injection, schedule: Q01DX001 (ip), vehicle: Klucel (hydroxypropylcellulose) (HPC)); 107 % of control (endpoint: mean survival time, dose: 200.0 mg/kg/injection, schedule: Q01DX009 (ip), vehicle: Klucel (hydroxypropylcellulose) (HPC)).
Consider `O=C(O)C[N-]CC[N-]CC(=O)O.[Cl][Pt+2][Cl]`, for which the T/C is 101 % of control (endpoint: mean survival time, dose: 6.25 mg/kg/injection, schedule: Q04DX003 (ip), vehicle: other); 100 % of control (endpoint: mean survival time, dose: 12.5 mg/kg/injection, schedule: Q04DX003 (ip), vehicle: other); 104 % of control (endpoint: mean survival time, dose: 25.0 mg/kg/injection, schedule: Q04DX003 (ip), vehicle: other); 109 % of control (endpoint: mean survival time, dose: 50.0 mg/kg/injection, schedule: Q04DX003 (ip), vehicle: other).
Consider `CC1=C(CNc2ncnc3nc[nH]c23)CC=CC1`, for which the T/C was 88 % of control under setting [4]; 95 % of control under setting [5]; 92 % of control under setting [6]; 88 % of control under setting [7]; 98 % of control under setting [8].
For `N#CC(Cl)(C#N)c1ccc(C(Cl)(C#N)C#N)cc1`, the T/C runs as follows: under setting [9], 101 % of control; under setting [10], 104 % of control; under setting [4], 98 % of control and 101 % of control.
Take `Cc1cc2c(C(C)C)c(O)c(O)cc2c(O)c1-c1c(C)cc2c(C(C)C)c(O)c(O)cc2c1O`: the T/C reads like this: (endpoint: mean survival time, dose: 12.5 mg/kg/injection, schedule: Q01DX001 (ip), vehicle: saline with Tween-80) 105 % of control; under setting [11], 100 % of control; (endpoint: mean survival time, dose: 25.0 mg/kg/injection, schedule: Q01DX001 (ip), vehicle: saline with Tween-80) 102 % of control; under setting [9], 94 % of control; (endpoint: mean survival time, dose: 50.0 mg/kg/injection, schedule: Q01DX001 (ip), vehicle: saline with Tween-80) 103 % of control; under setting [10], 90 % of control.
Consider `Cc1ccc(CSCc2ccc(C)cc2)cc1`, for which the T/C is, setting by setting: (endpoint: mean survival time, dose: 100.0 mg/kg/injection, schedule: Q04DX003 (ip), vehicle: other) 100 % of control; (endpoint: mean survival time, dose: 200.0 mg/kg/injection, schedule: Q04DX003 (ip), vehicle: other) 107 % of control; (endpoint: mean survival time, dose: 400.0 mg/kg/injection, schedule: Q04DX003 (ip), vehicle: other) 97 % of control.
With `COc1ccc(C=NCCO)cc1OC`, the T/C is 111 % of control (endpoint: median survival time, dose: 50.0 mg/kg/injection, schedule: Q04DX002 (ip), vehicle: saline with Tween-80); 100 % of control (endpoint: median survival time, dose: 100.0 mg/kg/injection, schedule: Q04DX002 (ip), vehicle: saline with Tween-80); 100 % of control (endpoint: median survival time, dose: 200.0 mg/kg/injection, schedule: Q04DX002 (ip), vehicle: saline with Tween-80); 100 % of control (endpoint: median survival time, dose: 400.0 mg/kg/injection, schedule: Q04DX002 (ip), vehicle: saline with Tween-80).
On to `O=C(O)C1C2CC3OC(=O)C1C3C2O` (centres undefined), for which the T/C is, setting by setting: under setting [4], 91 % of control; under setting [6], 93 % of control; under setting [7], 96 % of control.
Consider `COC1=CC(=O)c2ccccc2C1=O`, for which the T/C under setting [5] was 91 % of control and the T/C under setting [12] was 87 % of control.
With `CC(=O)[C@H]1CC[C@H]2[C@@H]3CC[C@@H]4CC(=O)CC[C@]4(C)[C@H]3CC[C@]12C`, the T/C was 96 % of control under setting [5], 96 % of control under setting [12] and 96 % of control under setting [8].
On to `O=C(NC(CSC(c1ccc(Cl)cc1)c1ccc(Cl)cc1)C(=O)O)OCc1ccccc1` (centres undefined), for which the T/C was 91 % of control under setting [13] and 97 % of control (endpoint: mean survival time, dose: 300.0 mg/kg/injection, schedule: Q01DX001 (ip), vehicle: saline).
`CC(=O)Oc1ccc(/C=N/NC(N)=S)nc1`: the T/C (endpoint: mean survival time, dose: 37.5 mg/kg/injection, schedule: Q01DX009 (ip), vehicle: saline with Tween-80) was 160 % of control; the T/C (endpoint: mean survival time, dose: 75.0 mg/kg/injection, schedule: Q01DX009 (ip), vehicle: saline with Tween-80) was 152 % of control; the T/C (endpoint: mean survival time, dose: 150.0 mg/kg/injection, schedule: Q01DX009 (ip), vehicle: saline with Tween-80) is 165 % of control.
Consider `C[C@@H]1CC2=CC(=O)CC[C@]2(C)[C@H]2CC[C@]3(C)[C@@H](O)CC[C@H]3[C@H]12`, for which the T/C was 98 % of control under setting [5], 119 % of control under setting [12] and 98 % of control under setting [8].
Consider `O=C(Sc1cccc2ccccc12)c1ccc([N+](=O)[O-])cc1`, for which the T/C runs as follows: under setting [14], 105 % of control; under setting [15], 92 % of control; under setting [16], 101 % of control.
`COC(=O)C1C2CCC(COC(C)=O)(O2)C1C(=O)O` (centres undefined): the T/C runs as follows: under setting [14], 94 % of control; under setting [17], 96 % of control; under setting [15], 97 % of control; under setting [18], 98 % of control; under setting [16], 88 % of control.
`NNC(=O)c1cccc(N)c1`: the T/C was 98 % of control (endpoint: mean survival time, dose: 25.0 mg/kg/injection, schedule: Q01DX009 (ip), vehicle: saline sonified); 102 % of control (endpoint: mean survival time, dose: 50.0 mg/kg/injection, schedule: Q01DX009 (ip), vehicle: saline sonified); 102 % of control (endpoint: mean survival time, dose: 100.0 mg/kg/injection, schedule: Q01DX009 (ip), vehicle: saline sonified); 104 % of control under setting [5].
As for `CC(Br)C(=O)NC(CC(N)=O)C(=O)O` (centres undefined), the T/C is, setting by setting: under setting [5], 102 % of control; under setting [12], 98 % of control.
`CNc1cccnc1/C=N/NC(N)=S`: the T/C was 104 % of control under setting [11]; 154 % of control under setting [10]; 162 % of control under setting [4]; 181 % of control under setting [6]; 90 % of control under setting [7].
With `Nc1nc2c(ncn2C2CC(O)C(CO)O2)c(=O)n1N` (centres undefined), the T/C runs as follows: under setting [13], 97 % of control; (endpoint: mean survival time, dose: 150.0 mg/kg/injection, schedule: Q01DX001 (ip), vehicle: saline) 100 % of control.
As for `Cc1ccccc1S(=O)(=O)F`, the T/C is 103 % of control under setting [10], 107 % of control under setting [4], 92 % of control under setting [5] and 89 % of control under setting [12].
As to `OCC1C2C=CC(c3ccccc32)C1CO` (centres undefined), the T/C reads like this: under setting [1], 106 % of control; under setting [2], 88 % of control; under setting [3], 95 % of control.
`O=P(O)(O)C1c2ccccc2-c2ccccc21`: the T/C reads like this: under setting [4], 100 % of control; under setting [5], 97 % of control; under setting [6], 94 % of control; under setting [12], 96 % of control; under setting [8], 100 % of control.
Turning to `Cc1nc2n[nH]c(N)c2nc1C`, the T/C reads like this: under setting [17], 100 % of control; under setting [18], 106 % of control; (endpoint: mean survival time, dose: 400.0 mg/kg/injection, schedule: Q01DX009 (ip), vehicle: saline) 106 % of control.
